From PMC8151276, “An Integrated Approach toward NanoBRET Tracers for Analysis of GPCR Ligand Engagement” (Molecules, 2021)

Tests used:
Format in all cases: binding
OPRL1 = biological target: T1, OPRL1 (Homo sapiens, UniProt P41146); assay: NanoBRET screen HiBiT-OPRL1 in HEK293
T1 construct: purchased Promega (in-house HiBiT-GPCR construct library, NanoBRET)
Experimental: (§1) Each tracer candidate was screened across the entire library of HiBiT-GPCR constructs using NanoBRET as the detection modality. As depicted in Figure 4A, the specificity of interactions was evaluated through decrease in BRET due to competitive displacement of a bound tracer by excess parental compound. Each tracer was analyzed for binding to each HiBiT-GPCR fusion in the absence and in the presence of competing parental compound. Briefly, HEK293 cells were transfected with HiBiT-GPCR constructs diluted into promoterless DNA to reduce expression and maximize translocation to the cell surface. Each tracer candidate was then screened at concentrations of 1 μM and 0.1 μM across cells expressing these fusions. Cells were treated for 1.5 h with tracer either alone or in the presence of 20 μM competing parental compound (i.e., control). BRET was measured upon addition of purified LgBiT and subsequent complementation with HiBiT genetically fused to a GPCR. The specificity of interactions was assessed through a decrease in BRET signal due to competitive displacement of the bound tracer. To further gauge the robustness of these interactions, the fold response over the control (i.e., BRETtracer/BRETcontrol) was calculated. We chose a 1.5-fold response, which translates to ≥7-fold signal over noise as the minimal threshold required to score an interaction as positive. […]. Below we highlight the screening results obtained for our exemplary fluorescent tracers based on Clozapine, Amitriptyline and AZD1283.
(§2) HiBiT-GPCR DNA constructs were diluted in 10 mM Tris pH 8 to a final concentration of 0.01 μg/μL, arrayed in 96-well plates and stored at −20 °C. For transfection, HEK293 cells were suspended in Opti-MEM (without phenol red) supplemented with 2% fetal bovine serum (Seradigm) and 100 units/mL penicillin–streptomycin (Gibco) at a final concentration of 220,000 cells/mL and dispensed into white 96-well plates at 90 μL/well. Subsequent transfections and screens were carried using an Agilent Bravo Automated Liquid Handling Platform. First, the 96-well HiBiT DNA arrays were diluted 25-fold in Opti-MEM (without serum or phenol red) to a final concentration of 0.0004 μg/μL and 20 μL of the diluted DNAs were transferred into new 96-well plates. Next, promoterless carrier DNA (1 μg/μL) was diluted 25-fold (0.04 μg/μL) and then dispensed into the diluted arrays at 20 μL/well. Following brief mixing, Viafect transfection reagent (Promega) diluted 16-fold into Opti-MEM was dispensed into the plates at 40 μL/well. After mixing by pipetting, plates were incubated for 10 min on the pipetting station deck. The DNA-transfection reagent complexes were then added to plates containing cells. To facilitate the screen, 10 μL of DNA-transfection reagent complexes were added in duplicates to the top 4 and bottom 4 rows, resulting in two identical 48-well arrays per plate. Plates with transfected cells were incubated for 18–20 h at 37 °C/5% CO2. A screen of each tracer across the entire library using two different concentrations requires duplicate plates of transfected cells. Depending on the number of tracers being screened, transfections can be scaled up using the same ratios. The next day, for each tracer, four 20× screening solutions in tracer dilution buffer (Promega) were prepared: two duplicates at final concentration of 20 μM and two duplicates at a final concentration of 2 μM. A competing unmodified compound was added to one of each duplicate at a final concentration of 400 μM. The four resulting solutions were diluted 4-fold in Opti-MEM without serum or phenol red to generate 5× solutions (5 µM and 0.5 µM tracer +/− 100 μM competing compound). To screen the library, a BioTek MultiFlo FX liquid dispenser was used to dispense 22.5 µL of tracer solution to the top 4 rows and 22.5 µL tracer + competing compound solution to the 4 bottom rows. Plates were briefly mixed on an orbital shaker and incubated for 1.5 h at room temperature. […]

FZD7 = biological target: T2, FZD7 (Homo sapiens, UniProt O75084); assay: NanoBRET screen HiBiT-FZD7 in HEK293
T2 construct: purchased Promega (in-house HiBiT-GPCR construct library, NanoBRET)
Experimental: as §1, §2

FPR1 = biological target: T3, FPR1 (Homo sapiens, UniProt P21462); assay: NanoBRET screen HiBiT-FPR1 in HEK293
T3 construct: purchased Promega (in-house HiBiT-GPCR construct library, NanoBRET)
T3 sequence (P21462 1-350): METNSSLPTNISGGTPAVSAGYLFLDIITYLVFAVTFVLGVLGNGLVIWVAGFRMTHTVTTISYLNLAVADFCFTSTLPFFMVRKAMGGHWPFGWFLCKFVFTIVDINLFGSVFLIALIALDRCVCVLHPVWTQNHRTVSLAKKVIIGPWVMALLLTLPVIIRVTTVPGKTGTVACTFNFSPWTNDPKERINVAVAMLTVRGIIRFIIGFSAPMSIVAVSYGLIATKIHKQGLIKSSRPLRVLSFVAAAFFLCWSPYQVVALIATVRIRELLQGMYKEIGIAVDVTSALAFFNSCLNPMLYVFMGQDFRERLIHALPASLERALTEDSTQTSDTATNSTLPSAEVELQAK
Experimental: as §1, §2

P2RY13 = biological target: T4, P2RY13 (Homo sapiens, UniProt Q9BPV8); assay: NanoBRET screen HiBiT-P2RY13 in HEK293
T4 construct: purchased Promega (in-house HiBiT-GPCR construct library, NanoBRET)
T4 sequence (Q9BPV8 1-354): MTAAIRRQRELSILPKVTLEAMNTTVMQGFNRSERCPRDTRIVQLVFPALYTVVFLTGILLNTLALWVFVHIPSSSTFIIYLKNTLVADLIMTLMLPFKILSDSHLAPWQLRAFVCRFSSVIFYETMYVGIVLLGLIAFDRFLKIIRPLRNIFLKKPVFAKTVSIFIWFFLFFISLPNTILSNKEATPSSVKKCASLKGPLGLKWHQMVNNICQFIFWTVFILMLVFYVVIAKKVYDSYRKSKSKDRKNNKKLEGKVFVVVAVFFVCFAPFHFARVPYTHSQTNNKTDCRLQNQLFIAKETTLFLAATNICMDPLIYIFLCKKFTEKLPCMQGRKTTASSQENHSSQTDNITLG
Experimental: as §1, §2

F2RL3 = biological target: T5, F2RL3 (Homo sapiens, UniProt Q96RI0); assay: NanoBRET screen HiBiT-F2RL3 in HEK293
T5 construct: purchased Promega (in-house HiBiT-GPCR construct library, NanoBRET)
T5 sequence (Q96RI0 18-385): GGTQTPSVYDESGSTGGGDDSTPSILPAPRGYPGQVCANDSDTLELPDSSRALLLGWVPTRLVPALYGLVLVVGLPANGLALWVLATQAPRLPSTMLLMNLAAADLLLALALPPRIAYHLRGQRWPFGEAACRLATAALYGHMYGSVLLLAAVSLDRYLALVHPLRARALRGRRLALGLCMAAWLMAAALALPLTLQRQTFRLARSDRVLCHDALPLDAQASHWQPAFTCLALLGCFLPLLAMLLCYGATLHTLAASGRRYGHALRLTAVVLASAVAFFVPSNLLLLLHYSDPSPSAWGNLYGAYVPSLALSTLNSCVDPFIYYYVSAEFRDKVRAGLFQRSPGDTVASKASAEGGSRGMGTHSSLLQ
Experimental: as §1, §2

T1 sequence (P41146 whole entry): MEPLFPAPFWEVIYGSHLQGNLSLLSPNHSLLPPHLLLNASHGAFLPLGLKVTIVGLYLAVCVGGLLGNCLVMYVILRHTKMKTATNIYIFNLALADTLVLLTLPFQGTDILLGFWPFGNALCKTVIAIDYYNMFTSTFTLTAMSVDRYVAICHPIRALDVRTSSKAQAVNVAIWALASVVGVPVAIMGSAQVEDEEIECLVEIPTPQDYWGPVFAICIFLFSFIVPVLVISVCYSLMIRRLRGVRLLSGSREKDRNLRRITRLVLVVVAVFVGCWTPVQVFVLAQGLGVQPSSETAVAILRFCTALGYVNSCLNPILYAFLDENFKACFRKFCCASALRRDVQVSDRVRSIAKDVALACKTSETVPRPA

Row | SMILES | NanoBRET Fold Response (OPRL1; 0.1μM tracer) | NanoBRET Fold Response (OPRL1; 1μM tracer) | NanoBRET Fold Response (FPR1; 0.1μM tracer) | NanoBRET Fold Response (FPR1; 1μM tracer) | NanoBRET Fold Response (P2RY13; 0.1μM tracer) | NanoBRET Fold Response (P2RY13; 1μM tracer) | NanoBRET Fold Response (F2RL3; 0.1μM tracer) | NanoBRET Fold Response (F2RL3; 1μM tracer) | NanoBRET Fold Response (FZD7; 0.1μM tracer) | NanoBRET Fold Response (FZD7; 1μM tracer) | NanoBRET Fold Response (OPRL1; OPRL1, 0.1μM tracer) | NanoBRET Fold Response (OPRL1; OPRL1, 1μM tracer) | NanoBRET Fold Response (FPR1; FPR1, 0.1μM tracer) | NanoBRET Fold Response (FPR1; FPR1, 1μM tracer) | NanoBRET Fold Response (P2RY13; P2RY13, 0.1μM tracer) | NanoBRET Fold Response (P2RY13; P2RY13, 1μM tracer) | NanoBRET Fold Response (F2RL3; F2RL3, 0.1μM tracer) | NanoBRET Fold Response (F2RL3; F2RL3, 1μM tracer) | NanoBRET Fold Response (FZD7; FZD7, 0.1μM tracer) | NanoBRET Fold Response (FZD7; FZD7, 1μM tracer) | other results
1 | CN(CCC=C1c2ccccc2CCc2ccccc21)C(=O)CCOCCOCCOCCOCCNC(=O)CCc1ccc2n1[B-](F)(F)[N+]1=C(c3ccc[nH]3)C=CC1=C2 [Amitriptyline-e-2-NB590] |  |  |  |  |  |  |  |  |  |  |  |  |  |  |  |  |  |  |  |  | NanoBRET Fold Response (OPRL1; tracer at 1μM): 1.10; NanoBRET Fold Response (FZD7; tracer at 1μM): 1.02
2 | COc1ccc2c(n1)c(CCNC(C)=O)cn2CCNC(=O)CCc1ccc2n1[B-](F)(F)[N+]1=C(c3ccc[nH]3)C=CC1=C2 [Azamelatonin-1-NB590] | 1.14 | 1.14 | 0.96 | 1.09 | 1.08 | 1.08 | 0.98 | 0.86 | 1.11 | 1.11 |  |  |  |  |  |  |  |  |  |  | 
3 | COc1ccc2[nH]c(-c3ccc(CNC(=O)CCOCCOCCOCCOCCNC(=O)CCc4ccc5n4[B-](F)(F)[N+]4=C(c6ccc[nH]6)C=CC4=C5)cc3)c(CCNC(C)=O)c2n1 [AzomelatoninICO9-2-NB590] | 0.71 | 1.05 | 1.02 | 0.90 | 0.87 | 1.09 | 1.05 | 1.04 | 1.29 | 0.84 |  |  |  |  |  |  |  |  |  |  | 
4 | O=C(CCOCCOCCOCCOCCNC(=O)CCc1ccc2n1[B-](F)(F)[N+]1=C(c3ccc[nH]3)C=CC1=C2)NCCCN1CCN(C2=Nc3cc(Cl)ccc3Nc3ccccc32)CC1 [Clozapine-a-2-NB590] |  |  |  |  |  |  |  |  |  |  | 0.99 | 1.05 | 1.01 | 1.22 | 1.06 | 0.94 | 1.02 | 1.15 | 1.00 | 0.98 | 
5 | CN1CCN(C2=Nc3cc(Cl)ccc3Nc3ccc(CNC(=O)CCOCCOCCOCCOCCNC(=O)CCc4ccc5n4[B-](F)(F)[N+]4=C(c6ccc[nH]6)C=CC4=C5)cc32)CC1 [Clozapine-b-2-NB590] |  |  |  |  |  |  |  |  |  |  | 1.00 | 1.01 | 0.98 | 1.00 | 1.02 | 0.99 | 0.99 | 1.05 | 1.01 | 0.98 | 
